Key:
Format in all cases: in vivo
Kochia (Kochia scoparia) [1] = assay: Test A preemergence
Source text: (§1) Seeds of plant species selected from barnyardgrass (Echinochloa crus-galli), Kochia (Kochia scoparia), ragweed (common ragweed, Ambrosia elatior), ryegrass, Italian (Italian ryegrass, Lolium multiflorum), crabgrass, large (Digitaria sanguinalis), giant foxtail (Setaria faberii), green foxtail (Setaria viridis), morningglory (Ipomoea spp.), pigweed (Amaranthus retroflexus), velvetleaf (Abutilon theophrasti), wheat (Triticum aestivum), and corn (Zea mays) were planted into a blend of loam soil and sand and treated preemergence with a directed soil spray using test chemicals formulated in anon-phytotoxic solvent mixture which included a surfactant.
(§2) At the same time, plants selected from these crop and weed species and also blackgrass (Alopecurus myosuroides), and Galium (catchweed bedstraw, Galium aparine) were planted in pots containing the same blend of loam soil and sand and treated with postemergence applications of test chemicals formulated in the same manner. Plants ranged in height from 2 to 10 cm and were in the one- to two-leaf stage for the postemergence treatment. Treated plants and untreated controls were maintained in a greenhouse for approximately 10 d, after which time all treated plants were compared to untreated controls and visually evaluated for injury. Plant response ratings, summarized in Table A, are based on a 0 to 100 scale where 0 is no effect and 100 is complete control. A dash (-) response means no test result.

[2] = test system: barnyardgrass (Echinochloa crus-galli); assay: Test A preemergence
Source text: as §1, §2

[3] = test system: giant foxtail (Setaria faberii); assay: Test A preemergence
Source text: as §1, §2

[4] = test system: pigweed (Amaranthus retroflexus); assay: Test A preemergence
Source text: as §1, §2

[5] = test system: ragweed (common ragweed, Ambrosia elatior); assay: Test A preemergence
Source text: as §1, §2

[6] = test system: ryegrass, Italian (Italian ryegrass, Lolium multiflorum); assay: Test A preemergence
Source text: as §1, §2

[7] = test system: Galium (catchweed bedstraw, Galium aparine); assay: Test A postemergence; conditions: postemergence; for Plant response rating, Galium: 0 to 100 scale, 0 no effect, 100 complete control
Source text: as §1, §2

Kochia (Kochia scoparia) [8] = assay: Test A postemergence; conditions: postemergence; for Plant response rating, Kochia: 0 to 100 scale, 0 no effect, 100 complete control
Source text: as §1, §2

[9] = test system: barnyardgrass (Echinochloa crus-galli); assay: Test A postemergence; conditions: postemergence; for Plant response rating, Barnyardgrass: 0 to 100 scale, 0 no effect, 100 complete control
Source text: as §1, §2

[10] = test system: blackgrass (Alopecurus myosuroides); assay: Test A postemergence; conditions: postemergence; for Plant response rating, Blackgrass: 0 to 100 scale, 0 no effect, 100 complete control
Source text: as §1, §2

corn (Zea mays) = assay: Test A postemergence; conditions: postemergence; for Plant response rating, Corn: 0 to 100 scale, 0 no effect, 100 complete control
Source text: as §1, §2

[11] = test system: giant foxtail (Setaria faberii); assay: Test A postemergence; conditions: postemergence; for Plant response rating, Foxtail, Giant: 0 to 100 scale, 0 no effect, 100 complete control
Source text: as §1, §2

[12] = test system: pigweed (Amaranthus retroflexus); assay: Test A postemergence; conditions: postemergence; for Plant response rating, Pigweed: 0 to 100 scale, 0 no effect, 100 complete control
Source text: as §1, §2

[13] = test system: ragweed (common ragweed, Ambrosia elatior); assay: Test A postemergence; conditions: postemergence; for Plant response rating, Ragweed: 0 to 100 scale, 0 no effect, 100 complete control
Source text: as §1, §2

[14] = test system: ryegrass, Italian (Italian ryegrass, Lolium multiflorum); assay: Test A postemergence; conditions: postemergence; for Plant response rating, Ryegrass, Italian: 0 to 100 scale, 0 no effect, 100 complete control
Source text: as §1, §2

[15] = test system: wheat (Triticum aestivum); assay: Test A postemergence; conditions: postemergence; for Plant response rating, Wheat: 0 to 100 scale, 0 no effect, 100 complete control
Source text: as §1, §2

[16] = 125 g ai/ha, preemergence, 0 to 100 scale (0 no effect, 100 complete control)
[17] = Preemergence, 500 g ai/ha, visual injury approx. 10 d
[18] = 125 g ai/ha, visual injury rating on 0 to 100 scale (0 no effect, 100 complete control), approx. 10 d
[19] = Preemergence, 1000 g ai/ha, 0 is no effect, 100 is complete control

Question: Which “Plant response rating, Kochia” value (Kochia (Kochia scoparia) [1]; [16]) does the source give for `COC(=O)c1ccccc1NC(=O)C1C(=O)NCC1c1ccc(F)c(F)c1` (stereo not drawn) [Compound 417] here?
Answer: 0

Question: What about the “Kochia plant response rating (0 to 100 scale, 0 is no effect, 100 is complete control)” value (Kochia (Kochia scoparia) [1]; [17]) of the same compound?
Answer: 0

Question: And the “Plant response rating, Barnyardgrass” value [2, 16]?
Answer: 0

Question: And the “Barnyardgrass plant response rating (0 to 100 scale, 0 is no effect, 100 is complete control)” value [2, 17]?
Answer: 0

Question: And the “Plant response rating, Foxtail, Giant” value [3, 16]?
Answer: 0

Question: And the “Foxtail, Giant plant response rating (0 to 100 scale, 0 is no effect, 100 is complete control)” value [3, 17]?
Answer: 0

Question: And the “Plant response rating, Pigweed” value [4, 16]?
Answer: 0

Question: And the “Pigweed plant response rating (0 to 100 scale, 0 is no effect, 100 is complete control)” value [4, 17]?
Answer: 0

Question: And the “Plant response rating, Ragweed” value [5, 16]?
Answer: 0

Question: What about the “Ragweed plant response rating (0 to 100 scale, 0 is no effect, 100 is complete control)” value [5, 17] of the same compound?
Answer: 0

Question: What about the “Plant response rating, Ryegrass, Italian” value [6, 16] of the same compound?
Answer: 0

Question: And the “Ryegrass, Italian plant response rating (0 to 100 scale, 0 is no effect, 100 is complete control)” value [6, 17]?
Answer: 0

Question: What about the “Galium plant response rating” value [7, 18] of the same compound?
Answer: 0

Question: And the “Plant response rating, Galium” value ([7]; 500 g ai/ha)?
Answer: 0

Question: And the “Kochia plant response rating” value (Kochia (Kochia scoparia) [8]; [18])?
Answer: 0

Question: What about the “Plant response rating, Kochia” value (Kochia (Kochia scoparia) [8]; 500 g ai/ha) of the same compound?
Answer: 0

Question: What about the “Barnyardgrass plant response rating” value [9, 18] of the same compound?
Answer: 0

Question: What about the “Plant response rating, Barnyardgrass” value ([9]; 500 g ai/ha) of the same compound?
Answer: 0

Question: What about the “Blackgrass plant response rating” value [10, 18] of the same compound?
Answer: 0

Question: What about the “Plant response rating, Blackgrass” value ([10]; 500 g ai/ha) of the same compound?
Answer: 0

Question: And the “Corn plant response rating” value (corn (Zea mays); [18])?
Answer: 0

Question: And the “Plant response rating, Corn” value (corn (Zea mays); 500 g ai/ha)?
Answer: 0

Question: What about the “Foxtail, Giant plant response rating” value [11, 18] of the same compound?
Answer: 0

Question: What about the “Plant response rating, Foxtail, Giant” value ([11]; 500 g ai/ha) of the same compound?
Answer: 0

Question: What about the “Pigweed plant response rating” value [12, 18] of the same compound?
Answer: 0

Question: And the “Plant response rating, Pigweed” value ([12]; 500 g ai/ha)?
Answer: 0

Question: What about the “Ragweed plant response rating” value [13, 18] of the same compound?
Answer: 0

Question: And the “Plant response rating, Ragweed” value ([13]; 500 g ai/ha)?
Answer: 0

Question: What about the “Ryegrass, Italian plant response rating” value [14, 18] of the same compound?
Answer: 0

Question: What about the “Plant response rating, Ryegrass, Italian” value ([14]; 500 g ai/ha) of the same compound?
Answer: 0

Question: And the “Wheat plant response rating” value [15, 18]?
Answer: 0

Question: And the “Plant response rating, Wheat” value ([15]; 500 g ai/ha)?
Answer: 0

Question: With `O=C(Nc1cccc(F)c1F)C1C(=O)N(CC=CCl)CC1c1cc(F)cc(F)c1` (stereo not drawn) [Compound 512] as the compound, how does the “Kochia plant response rating (0 to 100 scale)” value (Kochia (Kochia scoparia) [1]; [19]) read?
Answer: 0

Question: What about the “Barnyardgrass plant response rating (0 to 100 scale)” value [2, 19] of the same compound?
Answer: 80

Question: And the “Foxtail, Giant plant response rating (0 to 100 scale)” value [3, 19]?
Answer: 90

Question: And the “Pigweed plant response rating (0 to 100 scale)” value [4, 19]?
Answer: 0

Question: What about the “Ragweed plant response rating (0 to 100 scale)” value [5, 19] of the same compound?
Answer: 0

Question: And the “Ryegrass, Italian plant response rating (0 to 100 scale)” value [6, 19]?
Answer: 0

Question: And the “Plant response rating, Galium” value ([7]; 1000 g ai/ha)?
Answer: 0

Question: And the “Plant response rating, Kochia” value (Kochia (Kochia scoparia) [8]; 1000 g ai/ha)?
Answer: 0

Question: What about the “Plant response rating, Barnyardgrass” value ([9]; 1000 g ai/ha) of the same compound?
Answer: 80

Question: What about the “Plant response rating, Blackgrass” value ([10]; 1000 g ai/ha) of the same compound?
Answer: 0

Question: What about the “Plant response rating, Corn” value (corn (Zea mays); 1000 g ai/ha) of the same compound?
Answer: 0

Question: And the “Plant response rating, Foxtail, Giant” value ([11]; 1000 g ai/ha)?
Answer: 90

Question: And the “Plant response rating, Pigweed” value ([12]; 1000 g ai/ha)?
Answer: 0

Question: What about the “Plant response rating, Ragweed” value ([13]; 1000 g ai/ha) of the same compound?
Answer: 0

Question: What about the “Plant response rating, Ryegrass, Italian” value ([14]; 1000 g ai/ha) of the same compound?
Answer: 0

Question: And the “Plant response rating, Wheat” value ([15]; 1000 g ai/ha)?
Answer: 0

Reference: patent US12077503B2, “Substituted cyclic amides and their use as herbicides” (FMC CORPORATION, priority 2015, dated 2024)
